Measurements: patent US20180133211A1, “METHODS AND MATERIALS FOR PROMOTING BONE FORMATION” (Mayo Foundation for Medical Education and Research, priority 2015, published 2018)

Key:
RAW 264.7 cells = assay: RT-qPCR mRNA expression; format: cell-based, mouse; details: RAW 264.7 induced with RANKL and MCSF, co-treatment with SFN
Experimental: Total RNA was extracted using the SV Total RNA Isolation kit (Promega) following the supplier's instructions. cDNA was synthesized from about 0.5 μg RNA using the First Strand cDNA Synthesis kit (Roche) as described by the supplier. The resulting cDNAs were subjected to quantitative PCR amplification with a real-time cycler using the QUANTITECT™ SYBR® Green PCR Kit (Qiagen, Hilden, Germany) for the genes Alpl, Fas, Lox, Tet1, Tet2, and TAQMAN® Gene expression Master Mix (Applied Biosystems, Foster City, Calif., USA) for measuring Runx2, Bglap2, Colla1, Tnfsf11, and 18S rRNA expression (for primers, see Table 1). SYBR-Green RT-qPCR was started with an initial denaturation step at 95° C. for 10 minutes and then continued with 45 cycles consisting of 30 seconds denaturation at 95° C., 30 seconds annealing at primer-specific temperatures, and extension at 72° C. For measurement of the TAQMAN® assays, an initial denaturation at 95° C. for 10 minutes was applied, followed by 45 cycles alternating 60 seconds at 60° C. and 15 seconds at 95° C. All RT-qPCR assays were performed in triplicate, and expression was evaluated using the comparative quantification method (Pfaffl, Nucleic Acids Res., 29:e45 (2001)).

MC3T3-E1 cells = assay: ECM mineralization by Alizarin Red stain; format: cell-based, mouse; details: for matrix mineralization (Alizarin Red): MC3T3-E1, as early as 14 days of treatment
Experimental: Differentiation of MC3T3-E1 cells was induced with 50 μg/mL ascorbic acid (Sigma-Aldrich) and 5 mM β-glycerophosphate (Sigma-Aldrich) in medium containing 5% FBS. RAW 264.7 cells were cultured in Dulbecco's modified Eagle's medium (DMEM, Invitrogen, Carlsbad, Calif., USA) supplemented with 10% fetal bovine serum (Hyclone) and 2 mM glutamine (Gibco, Carlsbad, Calif., USA). Cells were seeded in culture dishes at a density of 20,000 cells/cm^2 and cultured overnight unless stated otherwise. Before cells were treated with compounds, the culture medium was changed.
Calvariae from 2 to 3-day-old and from 7-week old C57BL/6 mice were dissected aseptically. The calvarial bone explants were cultured in 48-well plates in α-MEM (Biochrom) containing 10% FCS (Biochrom), 50 μg/mL ascorbic acid (Sigma-Aldrich), 5 mM β-glycerophosphate (Sigma-Aldrich), and 10 μg/mL gentamicin (Sigma-Aldrich). The day after dissection, medium was changed, and a part of the explants was treated with 3 μM L- or DL-SFN for 12 days. Thereafter, one part of the calvariae were fixed for 1 hour in 4% para-formaldehyde (PFA), and mineralization was measured by Alizarin Red S stain (Sigma-Aldrich). For this purpose, Alizarin Red S dye was extracted using 10% cetylpyridinium chloride (CPC) in 10 mM sodiumphosphate (pH=7.0) for 45 minutes at room temperature. Alizarin Red S absorbance was measured at 562 nm in a multi-plate reader (Tecan, Maennedorf, Switzerland) and normalized to total protein amount measured by bicinchoninic acid assay (Thermo Fisher Scientific, Waltham, Mass., USA). From the other part of the calvariae, total RNA was extracted.

[1] = system: primary mouse osteoclasts; assay: Osteoclastic resorption on dentin slices; format: cell-based; details: 3 μM L- or DL-SFN, 14 days
Experimental: Primary mouse tissues or cells were obtained according to procedures that conform to the regulatory guidelines of the Institutional Animal Care and Use Committee of the Medical University of Vienna. Primary mouse osteoclasts were harvested from 8-week old C57BL/6 mice, which were sacrificed, and bone marrow cells were isolated from tibias and femurs under aseptic conditions and cultured in α-MEM (Biochrom) containing 10% FCS (Biochrom), […] (Sigma-Aldrich) and macrophage colony stimulating factor (MCSF1, 30 ng/mL). After 24 hours, non-adherent cells were seeded onto sterile, 300 μm thick dentin slices (elephant ivory) at 700,000 cells/cm^2 in αMEM supplemented with 10% FBS, 2 mM 1-glutamine, 30 μg/mL gentamycin, 20 ng/mL M-CSF, and 2 ng/mL RANKL (R&D Systems, Minneapolis, Minn., USA). Culture medium was changed twice per week, and cells were cultured for 14 days.
After culturing the primary mouse osteoclasts for 14 days on dentin slices in the presence or absence of 3 μM L- or DL-SFN, substrates were put into water, sonicated for 10 minutes to remove living cells and air-dried. Photographs were obtained by reflected light microscopy (objective 20×) of the entire substrate surface, and resorption trails and pits were analyzed and quantified with standard image analysis software (ImageJ, rsbweb.nih.gov/ij/). […]

[2] = system: sham operated or ovariectomized (OVX) C57B16/J female mice; assay: In vivo analysis of SFN effects on bone, μCT; set-up: species or system mouse; details: OVX mice; mitigation of the OVX-dependent decrease of trabecular number
Experimental: Analysis of SFN on mice was performed using a protocol similar to that described elsewhere (Kong et al., Arthritis Rheum., 62:159-170 (2010)). In the experimental setting herein, eight week old sham operated or ovariectomized (OVX) C57B16/J female mice were purchased from Charles River laboratories. Mice were injected with 7.5 mM DL-SFN (200 μL of SFN at a concentration of 63.8 mg/mL/kg dissolved in ethanol and further diluted in PBS) intraperitoneally every other day for five weeks. Control mice received vehicle alone.
Images from tibias fixed in 4% formaldehyde were acquired in a SkyScan 1174 with a resolution of 6 μm (X-ray voltage 50 kV). Image reconstruction was performed by applying a modified Feldkamp algorithm using the Skyscan Nrecon software. 3D and 2D morphometric parameters were calculated for the trabecular bone (350 consecutive slides, 6 μm thick) starting from 300 μm from the growth plate. Threshold values were applied for segmenting trabecular bone corresponding to bone mineral density values of 0.6/cm^3 calcium hydroxyapatite. 3D parameters were based on analysis of a Marching Cubes type model with a rendered surface. Calculation all of 2D areas and perimeters was based on the Pratt algorithm (Pratt et al., IEEE Trans. Biomed. Eng., 38, 306-309 (1991). Bone structural variables and nomenclature were used according to Bouxsein et al. (J. Bone Miner. Res., 25:1468-1486 (2010)).

MC3T3 cells = assay: Osteogenic differentiation of MC3T3 cells under EZH2 inhibition; format: cell-based, mouse; details: 1 μM UNC1999
Experimental: MC3T3 cells were seeded in 6-well plates in maintenance medium (10,000 cells/cm^2). The following day, maintenance medium was replaced with osteogenic medium (αMEM supplemented with 50 μg/mL ascorbic acid (Sigma) and 4 mM beta glycerol phosphate (Sigma)) containing vehicle or EZH2 inhibitor. Three days later, vehicle or EZH2 inhibitors were added again with osteogenic medium. On day six, EZH2 inhibitor and vehicle were removed, and fresh osteogenic medium added.
Media were changed every three days. RNA was isolated at indicated times. On day 6, cells were fixed in 10% neutral buffered formalin and stained with 5-bromo-4-chloro-3-indolyl-phosphate/nitro blue tetrazolium to monitor the enzymatic activity of alkaline phosphatase (Promega). On day 14 (AMCs) and days 21-25 (MC3T3), cells were fixed in 10% neutral buffered formalin and stained with 2% Alizarin Red to visualize calcium deposition. Absorption of alizarin red stain was normalized to total DNA as measured by Hoechst staining of the nuclei.

Row | Molecule | expression of classical osteoclastic markers (Acp5, Clcr, Ctsk) (RAW 264.7 cells) | potency in stimulating matrix mineralization relative to DMSO (MC3T3-E1 cells; MC3T3-E1) | matrix mineralization (Alizarin Red) (MC3T3-E1 cells) | area resorbed by primary mouse osteoclast cultures on ivory discs [1] | bone loss due to estrogen-deficiency [2] | osteogenic differentiation of MC3T3 cells (MC3T3 cells)
1 | 1-isothiocyanato-5-methanesulfinylpentane [SFN] | no appreciable changes | at least four orders of magnitude more potent than DMSO | increased matrix mineralization | significantly reduced | reduced bone loss | 
2 | C[S+](C)[O-] [DMSO, methanesulfinyl methane] |  |  | increased matrix mineralization |  |  | 
3 | CCCc1cc(C)[nH]c(=O)c1CNC(=O)c1cc(-c2ccc(N3CCN(C(C)C)CC3)nc2)cc2c1cnn2C(C)C [UNC1999, N-[(6-methyl-2-oxo-4-propyl-1,2-dihydropyridin-3-yl)methyl]-1-(propan-2-yl)-6-{6-[4-(propan-2-yl)piperazin-1-yl]pyridin-3-yl}-1H-indazole-4-carboxamide] |  |  |  |  |  | promotes
